Experimental data as given in ChEMBL document CHEMBL1201862, “PubChem BioAssay data set” (2004).
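Protocol summary: plate cells (96-well), add compound at 5 concentrations, incubate 48 h, interpolate endpoints linearly. Here, GI50 denotes the concentration required for 50% inhibition of growth.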 Calls of active or inactive are those of the source. Cut-off read from the data, not from the text of the source: active = GI50 up to about 1.1 µM and inactive = higher.

How the values were obtained:
Assay in all cases: NCI-60 cell line screen, 48 h
[1] = tested on: OVCAR-8
[2] = tested on: MOLT-4
[3] = tested on: A498
[4] = tested on: LOX IMVI
[5] = tested on: KM12
[6] = tested on: OVCAR-5
[7] = tested on: M14
[8] = tested on: RPMI-8226
[9] = tested on: CAKI-1
[10] = tested on: A549
[11] = tested on: IGROV-1
[12] = tested on: SK-MEL-2
[13] = tested on: SNB-75
[14] = tested on: SF-268
[15] = tested on: UACC-257

Measured: GI50

O=c1c(-c2ccccc2)c2oc(c1-c1ccccc1)CSCc1cccc(c1)CSC2
inactive: [1] 43.1 µM | [2] > 100 µM | [3] 21.8 µM | [4] 32.9 µM | [5] 60.3 µM | [6] > 100 µM | [7] > 100 µM | [8] 27.9 µM | [9] 34.2 µM | [10] 38.5 µM | [11] 26.3 µM | [12] > 100 µM | [13] 15.3 µM | [14] 30.5 µM | [15] > 100 µM

CCOC(=O)[C@H]1Nc2ccc(O)cc2C2c3ccccc3CC21 (stereo partly drawn)
inactive: [1] > 100 µM | [2] 33 µM | [3] > 100 µM | [4] 81.3 µM | [5] > 100 µM | [6] > 100 µM | [7] 59.7 µM | [8] 43.2 µM | [9] > 100 µM | [10] 65.3 µM | [11] > 100 µM | [12] > 100 µM | [13] 36.9 µM | [14] > 100 µM | [15] 37.7 µM

COc1cccc(C2C(C(=O)Nc3cc(=O)n(C)c(=O)n3C)=C(C)NC(C)=C2C(=O)Nc2cc(=O)n(C)c(=O)n2C)c1O
inactive: [1] > 100 µM | [2] > 100 µM | [3] > 100 µM | [4] > 100 µM | [5] > 100 µM | [6] > 100 µM | [7] > 100 µM | [8] 66.1 µM | [9] > 100 µM | [10] > 100 µM | [11] > 100 µM | [12] > 100 µM | [13] 23.9 µM | [14] > 100 µM | [15] > 100 µM

Cc1ccc(S(=O)(=O)C2CC2(Cl)Cl)cc1 (stereo not drawn)
inactive: [1] 20.9 µM | [2] 13.9 µM | [4] 15.9 µM | [5] 66.2 µM | [6] > 100 µM | [7] 14.7 µM | [9] 26.6 µM | [10] > 100 µM | [11] 26.9 µM | [12] 33.2 µM | [13] 55.7 µM | [14] 34 µM | [15] 21.2 µM

N#CC1=C(c2ccccc2)OC2(N)OC(c3ccccc3)=C(C#N)C12C#N (stereo not drawn)
inactive: [1] 74.8 µM | [2] > 100 µM | [3] > 100 µM | [4] > 100 µM | [5] > 100 µM | [6] > 100 µM | [7] > 100 µM | [8] 39.4 µM | [9] 84.1 µM | [10] > 100 µM | [11] > 100 µM | [12] > 100 µM | [13] 43.6 µM | [14] > 100 µM | [15] > 100 µM

O=c1[nH]cc(F)c(=O)n1C1OC(CO)C(O)C1O (stereo not drawn)
inactive: [1] > 100 µM | [2] > 100 µM | [4] > 100 µM | [5] > 100 µM | [6] > 100 µM | [7] > 100 µM | [8] > 100 µM | [9] > 100 µM | [10] > 100 µM | [12] > 100 µM | [13] > 100 µM | [14] > 100 µM | [15] > 100 µM

O=C(O)/C(Cl)=C(\Cl)Nc1cccc(C(F)(F)F)c1
inactive: [1] > 100 µM | [4] > 100 µM | [7] 18 µM | [9] > 100 µM | [10] > 100 µM | [11] > 100 µM | [13] > 100 µM | [14] > 100 µM

C[C@@H]1OC(=O)N2CCCC(=C3SCCCS3)C12 (stereo partly drawn)
inactive: [1] 57.9 µM | [2] 33.3 µM | [3] > 100 µM | [4] 94 µM | [5] 60.3 µM | [6] > 100 µM | [7] 48.9 µM | [8] 36.9 µM | [10] 78.5 µM | [11] 90.8 µM | [12] > 100 µM | [13] 51.2 µM | [14] 61.9 µM | [15] 37.1 µM
